Laboratory results from US20190167568A1, “Transdermal Drug Delivery System and Method for Using Same” (SENJU USA, INC., priority 2016, published 2019).

Settings: pH 8
Source text: In the present invention, the distribution coefficient (octanol/water distribution coefficient) may be adopted as the index of “water soluble” and “liposoluble” in the “water soluble steroid” and the “liposoluble steroid.” The distribution coefficient can be expressed in log D in consideration of the influence of pH, and water solubility is indicated by a minus value while liposolubility is indicated by a plus value.
The distribution coefficient can be obtained according to the method of JIS […] or JIS […].

Row | Substance | distribution coefficient (log D)
1 | prednisolone sodium phosphate | 0
2 | dexamethasone metasulfobenzoate sodium | −2
